In the first test the test system is B16F10 mouse melanoma cells. The experiment in a line: B16F10 IFNγ-induced cellular growth inhibition assay. Format: cell-based. To be noted: B16-F10, with 0.5 ng/mL IFNγ, read-out: B16F10 GI IC50. On the procedure: Example 229: B16F10 IFNγ-Induced Cellular Growth Inhibition Assay B16F10 mouse melanoma cells (ATCC Cat^# CRL-6475, Manassas, Va.) were seeded at a density of 500 cells per well in a 384-well clear bottom plate (Corning Cat^#3765, Corning, N.Y.) in 25 μL total volume of DMEM+10% FBS (Sigma Cat^# D6429 and Sigma Cat^# F4135, St. Louis, Mo.). Cells were allowed to adhere overnight at 37° C.+5% CO2. On the following day, 12.5 μL of mouse IFNγ (RD systems Cat^#485-MI/CF, Minneapolis, Minn.) was added to half of the plate (columns 13-24) at a concentration of 2 ng/mL for a final assay concentration of 0.5 ng/mL of IFNγ. Media only (12.5 μL of DMEM+10% FBS) was added to the remainder of the plate (columns 1-12). Next, compounds resuspended in DMSO (Sigma Cat^# D2650) at 100 mM were diluted in semi-log dilutions in DMSO ranging from 100 mM to 0.001 mM and DMSO only controls were included. The compound/DMSO dilutions were further diluted 1:250 in DMEM+10% FBS, and 12.5 μL of these dilutions were added in triplicates to cells of both treatment arms (with and without IFNγ). Final compound concentrations ranged from 100 μM to 0.001 μM with a final DMSO concentration of 0.1%. Compounds were only dosed in the inner 240 wells, avoiding the outer 2-well perimeter of the plate to minim/ze edge effects. Finally, the plate was loaded into an IncuCyte® S3 Live Cell Analysis System (Essen Bioscience-Sartorius, Ann Arbor, Mich.) maintained in a 37° C.+5% CO2 incubator, allowed to equilibrate for 2 hours, and imaged every 6 hours for 5 days. Confluence over time for compound dilutions in the presence and absence of IFNγ was measured. Growth inhibition values were obtained when the “DMSO/no IFNγ” control reached confluence >95%. At these time points, for each compound the percent growth inhibition at every compound dose level was calculated relative to the “DMSO/with IFNγ” control and used to determine the IC50.
Take `C[C@H](N)CN1CCc2cc(O)c(N3CC(=O)NS3(=O)=O)c(F)c2C1` [Compound 245, 5-{2-[(2S)-2-aminopropyl]-8-fluoro-6-hydroxy-1,2,3,4-tetrahydroisoquinolin-7-yl}-1λ^6,2,5-thiadiazolidine-1,1,3-trione]: the 50% inhibitory concentration (IC50) (as a rule, the concentration that inhibits the measured activity by half) lay within 1 to 10 µM. Still for that read-out and setting: in the case of `O=C1CN(c2c(O)cc3c(c2F)CN(CCCCCC(F)(F)F)CC3)S(=O)(=O)N1` [Compound 161, 5-[8-fluoro-6-hydroxy-2-(6,6,6-trifluorohexyl)-1,2,3,4-tetrahydroisoquinolin-7-yl]-1λ^6,2,5-thiadiazolidine-1,1,3-trione] it was 10 to 100 µM; in that of `O=C1CN(c2c(O)cc3c(c2F)CCCC3)S(=O)(=O)N1` [Compound 108, 5-(1-fluoro-3-hydroxy-5,6,7,8-tetrahydronaphthalen-2-yl)-1λ^6,2,5-thiadiazolidine-1,1,3-trione], 10 to 100 µM; in that of `Cc1noc(C)c1CCN1CCc2cc(O)c(N3CC(=O)NS3(=O)=O)c(F)c2C1` [Compound 211, 5-{2-[2-(3,5-dimethyl-1,2-oxazol-4-yl)ethyl]-8-fluoro-6-hydroxy-1,2,3,4-tetrahydroisoquinolin-7-yl}-1λ^6,2,5-thiadiazolidine-1,1,3-trione], less than 1 µM. Turning to `O=C1CN(c2c(O)cc3c(c2F)CN(CC[C@H]2C[C@@H](OC(F)(F)F)C2)CC3)S(=O)(=O)N1` [Compound 231, 5-(8-fluoro-6-hydroxy-2-{2-[(1s,3r)-3-(trifluoromethoxy)cyclobutyl]ethyl}-1,2,3,4-tetrahydroisoquinolin-7-yl)-1λ^6,2,5-thiadiazolidine-1,1,3-trione], the IC50 is 1 to 10 µM. The same measure, in the same setting: in the case of `O=C1CN(c2c(O)cc3c(c2F)CN(Cc2ccccn2)CC3)S(=O)(=O)N1` [Compound 184, 5-{8-fluoro-6-hydroxy-2-[(pyridin-2-yl)methyl]-1,2,3,4-tetrahydroisoquinolin-7-yl}-1λ^6,2,5-thiadiazolidine-1,1,3-trione] it was 10 to 100 µM.

Take `O=C1CN(c2c(O)cc3c(c2F)CN(CCC2(C(F)(F)F)CC2)CC3)S(=O)(=O)N1` [Compound 243, 5-(8-fluoro-6-hydroxy-2-{2-[1-(trifluoromethyl)cyclopropyl]ethyl}-1,2,3,4-tetrahydroisoquinolin-7-yl)-1λ^6,2,5-thiadiazolidine-1,1,3-trione]: the IC50 was in the range of 1 to 10 µM.

Take `Cc1nn(CC(F)F)c(C)c1CCN1CCc2cc(O)c(N3CC(=O)NS3(=O)=O)c(F)c2C1` [Compound 253, 5-(2-{2-[1-(2,2-difluoroethyl)-3,5-dimethyl-1H-pyrazol-4-yl]ethyl}-8-fluoro-6-hydroxy-1,2,3,4-tetrahydroisoquinolin-7-yl)-1λ^6,2,5-thiadiazolidine-1,1,3-trione]: the IC50 fell in the range of 1 to 10 µM. Take `COCCCCN1CCc2cc(O)c(N3CC(=O)NS3(=O)=O)c(F)c2C1` [Compound 293, 5-[8-fluoro-6-hydroxy-2-(4-methoxybutyl)-1,2,3,4-tetrahydroisoquinolin-7-yl]-1λ^6,2,5-thiadiazolidine-1,1,3-trione]: the IC50 lay within 1 to 10 µM. With `O=C1CN(c2c(O)cc3c(c2F)CN(CCC2CCOCC2)CC3)S(=O)(=O)N1` [Compound 214, 5-{8-fluoro-6-hydroxy-2-[2-(oxan-4-yl)ethyl]-1,2,3,4-tetrahydroisoquinolin-7-yl}-1λ^6,2,5-thiadiazolidine-1,1,3-trione], the IC50 lay in the range of 1 to 10 µM. Consider `O=C1CN(c2c(O)cc3c(c2F)CN(CCCCC(F)(F)F)CC3)S(=O)(=O)N1` [Compound 153, 5-[8-fluoro-6-hydroxy-2-(5,5,5-trifluoropentyl)-1,2,3,4-tetrahydroisoquinolin-7-yl]-1λ^6,2,5-thiadiazolidine-1,1,3-trione], for which the IC50 was greater than 100 µM.

For the compound `O=C1CN(c2c(O)cc3c(c2F)CN(C(=O)NCC2CC2)CC3)S(=O)(=O)N1` [Compound 258, N-(cyclopropylmethyl)-8-fluoro-6-hydroxy-7-(1,1,4-trioxo-1λ^6,2,5-thiadiazolidin-2-yl)-3,4-dihydroisoquinoline-2(1H)-carboxamide], the IC50 lay in the range of 1 to 10 µM. `CC(C)CNC(=O)N1CCc2cc(O)c(N3CC(=O)NS3(=O)=O)c(F)c2C1` [Compound 206, 8-fluoro-6-hydroxy-N-(2-methylpropyl)-7-(1,1,4-trioxo-1λ^6,2,5-thiadiazolidin-2-yl)-3,4-dihydroisoquinoline-2(1H)-carboxamide]: the IC50 lay in the range of 1 to 10 µM. The same measure, in the same setting: in the case of `CCn1nc(C)c(CCN2CCc3cc(O)c(N4CC(=O)NS4(=O)=O)c(F)c3C2)c1C` [Compound 276, 5-{2-[2-(1-ethyl-3,5-dimethyl-1H-pyrazol-4-yl)ethyl]-8-fluoro-6-hydroxy-1,2,3,4-tetrahydroisoquinolin-7-yl}-1λ^6,2,5-thiadiazolidine-1,1,3-trione] it was 1 to 10 µM; in that of `Cc1c(CCN2CCc3cc(O)c(N4CC(=O)NS4(=O)=O)c(F)c3C2)cnn1C` [Compound 257, 5-{2-[2-(1,5-dimethyl-1H-pyrazol-4-yl)ethyl]-8-fluoro-6-hydroxy-1,2,3,4-tetrahydroisoquinolin-7-yl}-1λ^6,2,5-thiadiazolidine-1,1,3-trione], 1 to 10 µM; in that of `O=C1CN(c2c(O)cc3c(c2F)CC(NCc2ccccn2)CC3)S(=O)(=O)N1` (stereo not shown) [Compound 155, 5-(1-fluoro-3-hydroxy-7-{[(pyridin-2-yl)methyl]amino}-5,6,7,8-tetrahydronaphthalen-2-yl)-1λ^6,2,5-thiadiazolidine-1,1,3-trione], 10 to 100 µM. For the compound `O=C1CN(c2c(O)cc3c(c2F)CN(CCCC2CCCCC2)CC3)S(=O)(=O)N1` [Compound 286, 5-[2-(3-cyclohexylpropyl)-8-fluoro-6-hydroxy-1,2,3,4-tetrahydroisoquinolin-7-yl]-1λ^6,2,5-thiadiazolidine-1,1,3-trione], the IC50 was in the range of 1 to 10 µM. The same measure, in the same setting: as for `COCCCN1CCc2cc(O)c(N3CC(=O)NS3(=O)=O)c(F)c2C1` [Compound 217, 5-[8-fluoro-6-hydroxy-2-(3-methoxypropyl)-1,2,3,4-tetrahydroisoquinolin-7-yl]-1λ^6,2,5-thiadiazolidine-1,1,3-trione], the figure is 1 to 10 µM. In the case of `O=C1CN(c2c(O)cc3c(c2F)CN(CCC2CCCCC2)CC3)S(=O)(=O)N1` [Compound 179, 5-[2-(2-cyclohexylethyl)-8-fluoro-6-hydroxy-1,2,3,4-tetrahydroisoquinolin-7-yl]-1λ^6,2,5-thiadiazolidine-1,1,3-trione], the IC50 fell in the range of 1 to 10 µM. With `O=C1CN(c2c(O)cc3c(c2F)CN(C(=O)NCC2CC(F)(F)C2)CC3)S(=O)(=O)N1` [Compound 262, N-[(3,3-difluorocyclobutyl)methyl]-8-fluoro-6-hydroxy-7-(1,1,4-trioxo-1λ^6,2,5-thiadiazolidin-2-yl)-3,4-dihydroisoquinoline-2(1H)-carboxamide], the IC50 was 10 to 100 µM. With `NCCCN1CCc2cc(O)c(N3CC(=O)NS3(=O)=O)c(F)c2C1` [Compound 218, 5-[2-(3-aminopropyl)-8-fluoro-6-hydroxy-1,2,3,4-tetrahydroisoquinolin-7-yl]-1λ^6,2,5-thiadiazolidine-1,1,3-trione], the IC50 fell in the range of 10 to 100 µM. As for `Cc1nn(C)c(C)c1CCN1CCc2cc(O)c(N3CC(=O)NS3(=O)=O)c(F)c2C1` [Compound 209, 5-{8-fluoro-6-hydroxy-2-[2-(1,3,5-trimethyl-1H-pyrazol-4-yl)ethyl]-1,2,3,4-tetrahydroisoquinolin-7-yl}-1λ^6,2,5-thiadiazolidine-1,1,3-trione], the IC50 was 1 to 10 µM. `N[C@H](CCC1CCCCC1)C(=O)N1CCc2cc(O)c(N3CC(=O)NS3(=O)=O)c(F)c2C1` [Compound 250, 5-{2-[(2R)-2-amino-4-cyclohexylbutanoyl]-8-fluoro-6-hydroxy-1,2,3,4-tetrahydroisoquinolin-7-yl}-1λ^6,2,5-thiadiazolidine-1,1,3-trione]: the IC50 was greater than 100 µM. Still for that read-out and setting: in the case of `O=C1CN(c2c(O)cc3c(c2F)CNCC3)S(=O)(=O)N1` [Compound 143, 5-(8-fluoro-6-hydroxy-1,2,3,4-tetrahydroisoquinolin-7-yl)-1λ^6,2,5-thiadiazolidine-1,1,3-trione] it was 1 to 10 µM; in that of `CC(C)CCNC(=O)N1CCc2cc(O)c(N3CC(=O)NS3(=O)=O)c(F)c2C1` [Compound 205, 8-fluoro-6-hydroxy-N-(3-methylbutyl)-7-(1,1,4-trioxo-1λ^6,2,5-thiadiazolidin-2-yl)-3,4-dihydroisoquinoline-2(1H)-carboxamide], 1 to 10 µM.

The test is the same for the next values; noted with them: B16-F10, with 0.5 ng/mL IFNγ, read-out: B16F10 Growth Inhibition IC50.
With `CC(C)CCNc1ccc2cc(O)c(N3CC(=O)NS3(=O)=O)c(F)c2c1` [Compound V], the IC50 came to 3.2 µM. Regarding `O=C1CN(c2c(O)cc3ccc(NCCC4CC4)cc3c2F)S(=O)(=O)N1` [Compound X], the IC50 was 4.1 µM. For the compound `CC(C)(C)CCNc1ccc2cc(O)c(N3CC(=O)NS3(=O)=O)c(F)c2c1` [Compound W], the IC50 was 4.1 µM.

For the origin of these results see patent publication US10851073B2, “Protein tyrosine phosphatase inhibitors and methods of use thereof” (Calico Life Sciences LLC, priority 2019, dated 2020).
